{"source": "patent US6794396B2", "about": "“Substituted pyridines useful for inhibiting cholesteryl ester transfer protein activity” (Pharmacia Corporation, priority 1998, dated 2004)"}
{"biological_target": "T1, CETP (Homo sapiens, UniProt P11597)", "T1 construct": "made in house; host or cells: CHO cells (serum-free conditioned medium)", "T1 sequence (P11597 18-493)": "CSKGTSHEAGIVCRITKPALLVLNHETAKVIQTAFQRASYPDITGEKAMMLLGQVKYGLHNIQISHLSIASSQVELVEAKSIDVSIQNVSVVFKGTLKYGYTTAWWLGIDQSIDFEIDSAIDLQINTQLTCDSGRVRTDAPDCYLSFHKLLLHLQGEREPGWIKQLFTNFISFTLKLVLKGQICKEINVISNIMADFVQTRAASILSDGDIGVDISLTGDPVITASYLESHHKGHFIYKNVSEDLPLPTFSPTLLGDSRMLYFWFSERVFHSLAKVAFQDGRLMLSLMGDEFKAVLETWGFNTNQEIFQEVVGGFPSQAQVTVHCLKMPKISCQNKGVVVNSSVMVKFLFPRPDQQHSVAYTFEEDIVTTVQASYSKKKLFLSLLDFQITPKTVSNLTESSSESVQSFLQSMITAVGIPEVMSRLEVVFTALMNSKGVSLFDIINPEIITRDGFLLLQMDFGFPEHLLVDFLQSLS", "test": "CETP activity in vitro: transfer of [3H]CE from HDL donor to LDL acceptor particles", "assay_type": "biochemical", "conditions": "@ 100 μm; footnotes A and B of Table 6", "procedure": "(§1) The ability of compounds to inhibit CETP were assessed using an in vitro assay that measured the rate of transfer of radiolabeled cholesteryl ester ([^3H]CE) from HDL donor particles to LDL acceptor particles. Details of the assay are provided by Glenn et al. (“Quantification of Cholesteryl Ester Transfer Protein (CETP): A) CETP Activity and B) Immunochemical Assay of CETP Protein,” Meth. Enzymol., Glenn and Melton (Meth. Enzymol., 263, 339-351 (1996), which is incorporated herein by reference). CETP was obtained from the serum-free conditioned medium of CHO cells transfected with a cDNA for CETP (Wang, S. et al. J. Biol Chem. 267, 17487-17490 (1992), which is incorporated herein by reference).\n(§2) To measure CETP activity, [^3H]CE-labeled HDL, LDL, CETP and assay buffer (50 mM tris(hydroxymethyl)amino-methane, pH 7.4; 150 mM sodium chloride; 2 mM ethylenediamine-tetraacetic acid; 1% bovine serum albumin) were incubated in a volume of 200 μl, for 2 hours at 37° C. in 96 well plates. LDL was differentially precipitated by the addition of 50 μl of 1% (w/v) dextran sulfate/0.5 M magnesium chloride, mixed by vortex, and incubated at room temperature for 10 minutes The solution (200μl) was transferred to a filter plate (Millipore). After filtration, the radioactivity present in the precipitated LDL was measured by liquid scintillation counting.\n(§3) This value was defined as the IC50."}
{"smiles": "COC(=O)c1c(C(F)F)nc(C(F)(F)F)c(CSc2nccn2C)c1CC(C)C", "note": "[Compound 188, Methyl 5-[(1-Methylimidazol-2-yl)thiomethyl]-2-(difluoromethyl)-4-(2-methylpropyl)-6-(trifluoromethyl)-3-pyridinecarboxylate]", "CE transferred": "^A90% CE transferred @ 100 μm."}
{"smiles": "COC(=O)c1c(C(F)F)nc(C(F)(F)F)c(CSc2nnnn2C)c1CC(C)C", "note": "[Compound 189, Methyl 5-[(1-Methyltetrazol-5-yl)thiomethyl]-2-(difluoromethyl)-4-(2-methylpropyl)-6-(trifluoromethyl)-3-pyridinecarboxylate]", "CE transferred": "^A90% CE transferred @ 100 μm."}
{"smiles": "COC(=O)c1c(C(F)F)nc(C(F)(F)F)c(CSc2ccc(NC(C)=O)cc2)c1CC(C)C", "note": "[Compound 204, Methyl 5-[(4-(Acetylamino)phenyl)thiomethyl]-2-(difluoromethyl)-4-(2-methylpropyl)-6-(trifluoromethyl)-3-pyridinecarboxylate]", "CE transferred": "^B80% CE transferred @ 100 μm."}
{"biological_target": "T1, CETP", "test": "CETP activity in vitro: transfer of [3H]CE from HDL donor to LDL acceptor particles", "assay_type": "biochemical", "conditions": "IC50(μm), 50% inhibition of [3H]CE transfer from HDL to LDL, 2 hours at 37° C.", "procedure": "as §1, §2, §3", "units": {"IC50": "µM"}}
{"smiles": "COC(=O)c1c(C(F)F)nc(C(F)(F)F)c(C(=O)Oc2ccccc2C(C)C)c1CC(C)C", "note": "[Compound 175, 3-Methyl 5-(2-Isopropylphenyl) 2-(Difluoromethyl)-4-(2-methylpropyl)-6-(trifluoromethyl)-3,5-pyridicarboxylate]", "IC50": "> 100"}
{"biological_target": "T1, CETP", "test": "CETP activity in vitro: transfer of [3H]CE from HDL donor to LDL acceptor particles", "assay_type": "biochemical", "conditions": "IC50, Table 5, compounds of formula T-5", "procedure": "as §1, §2, §3", "units": {"IC50": "µM"}}
{"smiles": "COC(=O)c1c(C(F)F)nc(C(F)(F)F)c(SC(=O)c2c(C(F)(F)F)nc(C(F)F)c(C(=O)OC)c2CC(C)C)c1CC(C)C", "note": "[Compound 183, Methyl 5-{[2-(Difluoromethyl)-4-(2-methylpropyl)-3-(methoxycarbonyl)-6-(trifluoromethyl)-5-pyridyl]carbonylthio}-2-(difluoromethyl)-4-(2-methylpropyl)-6-(trifluoromethyl)-3-pyridinecarboxylate]", "IC50": 50}
{"biological_target": "T1, CETP", "test": "CETP activity in vitro: transfer of [3H]CE from HDL donor to LDL acceptor particles", "assay_type": "biochemical", "conditions": "IC50, Table 6, compounds of formula T-6", "procedure": "as §1, §2, §3", "units": {"IC50": "µM"}}
{"smiles": "COC(=O)c1c(C(F)F)nc(C(F)(F)F)c(CSc2ccc(Cl)cc2)c1CC(C)C", "note": "[Compound 185, Methyl 5-[(4-Chlorophenyl)thiomethyl]-2-(difluoromethyl)-4-(2-methylpropyl)-6-(trifluoromethyl)-3-pyridinecarboxylate]", "IC50": 10}
{"smiles": "COC(=O)c1c(C(F)F)nc(C(F)(F)F)c(CSc2nccn2C)c1CC(C)C", "note": "[Compound 188, Methyl 5-[(1-Methylimidazol-2-yl)thiomethyl]-2-(difluoromethyl)-4-(2-methylpropyl)-6-(trifluoromethyl)-3-pyridinecarboxylate]", "IC50": "> 100"}
{"smiles": "COC(=O)c1c(C(F)F)nc(C(F)(F)F)c(CSc2ccc(OC(F)(F)F)cc2)c1CC(C)C", "note": "[Compound 191]", "IC50": 10}
{"smiles": "COC(=O)c1c(C(F)F)nc(C(F)(F)F)c(CSc2ccc([N+](=O)[O-])cc2)c1CC(C)C", "note": "[Compound 198, Methyl 5-[(4-Nitrophenyl)thiomethyl]-2-(difluoromethyl)-4-(2-methylpropyl)-6-(trifluoromethyl)-3-pyridinecarboxylate]", "IC50": 7}
{"biological_target": "T1, CETP", "test": "CETP activity in vitro: transfer of [3H]CE from HDL donor to LDL acceptor particles", "assay_type": "biochemical", "conditions": "Table 5, compounds of formula T-5; read-out: IC50", "procedure": "as §1, §2, §3", "units": {"IC50": "µM"}}
{"smiles": "COC(=O)c1c(C(F)F)nc(C(F)(F)F)c(CSc2c(C(F)(F)F)nc(C(F)F)c(C(=O)OC)c2CC(C)C)c1CC(C)C", "note": "[Compound 182, Methyl 5-{[3-(Carbomethoxy)-2-(difluoromethyl)-4-isobutyl-6-(trifluoromethyl)-5-pyridyl]thiomethyl}-2-(difluoromethyl)-4-isobutyl-6-(trifluoromethyl)-3-pyridinecarboxylate]", "IC50": 19}
{"biological_target": "T1, CETP", "test": "CETP activity in vitro: transfer of [3H]CE from HDL donor to LDL acceptor particles", "assay_type": "biochemical", "conditions": "Table 6, compounds of formula T-6; read-out: IC50", "procedure": "as §1, §2, §3", "units": {"IC50": "µM"}}
{"smiles": "COC(=O)c1c(C(F)F)nc(C(F)(F)F)c(CSc2cccc(Br)c2)c1CC(C)C", "note": "[Compound 184, Methyl 5-[(3-Bromophenyl)thiomethyl]-2-(difluoromethyl)-4-(2-methylpropyl)-6-(trifluoromethyl)-3-pyridinecarboxylate]", "IC50": 30}
{"smiles": "COC(=O)c1c(C(F)F)nc(C(F)(F)F)c(CSc2c(F)c(F)cc(F)c2F)c1CC(C)C", "note": "[Compound 186, Methyl 5-[(2,3,5,6-Tetrafluorophenyl)thiomethyl]-2-(difluoromethyl)-4-(2-methylpropyl)-6-(trifluoromethyl)-3-pyridinecarboxylate]", "IC50": 50}
{"smiles": "COC(=O)c1c(C(F)F)nc(C(F)(F)F)c(CSc2cc(C(C)(C)C)cc(C(C)(C)C)c2)c1CC(C)C", "note": "[Compound 187, Methyl 5-[(3,5-Di-t-butylphenyl)thiomethyl]-2-(difluoromethyl)-4-(2-methylpropyl)-6-(trifluoromethyl)-3-pyridinecarboxylate]", "IC50": 40}
{"smiles": "COC(=O)c1c(C(F)F)nc(C(F)(F)F)c(CSc2nnnn2C)c1CC(C)C", "note": "[Compound 189, Methyl 5-[(1-Methyltetrazol-5-yl)thiomethyl]-2-(difluoromethyl)-4-(2-methylpropyl)-6-(trifluoromethyl)-3-pyridinecarboxylate]", "IC50": "> 100"}
{"smiles": "COC(=O)c1c(C(F)F)nc(C(F)(F)F)c(CSc2nc3ccc([N+](=O)[O-])cc3[nH]2)c1CC(C)C", "note": "[Compound 190, Methyl 5-[(5-Nitrobenzimidazol-2-yl)thiomethyl]-2-(difluoromethyl)-4-(2-methylpropyl)-6-(trifluoromethyl)-3-pyridinecarboxylate]", "IC50": 25}
{"smiles": "COC(=O)c1c(C(F)F)nc(C(F)(F)F)c(CSc2ccc3ccccc3n2)c1CC(C)C", "note": "[Compound 192, Methyl 5-[(Quinolin-2-yl)thiomethyl]-2-(difluoromethyl)-4-(2-methylpropyl)-6-(trifluoromethyl)-3-pyridinecarboxylate]", "IC50": 40}
{"smiles": "COC(=O)c1c(C(F)F)nc(C(F)(F)F)c(CSc2ccc(Br)cc2)c1CC(C)C", "note": "[Compound 193, Methyl 5-[(4-Bromophenyl)thiomethyl]-2-(difluoromethyl)-4-(2-methylpropyl)-6-(trifluoromethyl) -3-pyridinecarboxylate]", "IC50": 20}
{"smiles": "COC(=O)c1c(C(F)F)nc(C(F)(F)F)c(CSc2c(F)c(F)c(F)c(F)c2F)c1CC(C)C", "note": "[Compound 194, Methyl 5-[(Pentafluorophenyl)thiomethyl]-2-(difluoromethyl)-4-(2-methylpropyl)-6-(trifluoromethyl)-3-pyridinecarboxylate]", "IC50": 30}
{"smiles": "COC(=O)c1c(C(F)F)nc(C(F)(F)F)c(CSc2cc(Cl)ccc2Cl)c1CC(C)C", "note": "[Compound 195, Methyl 5-[(2,5-Dichlorophenyl)thiomethyl]-2-(difluoromethyl)-4-(2-methylpropyl)-6-(trifluoromethyl)-3-pyridinecarboxylate]", "IC50": 50}
{"smiles": "COC(=O)c1c(C(F)F)nc(C(F)(F)F)c(CSc2c(F)c(F)c(C(F)(F)F)c(F)c2F)c1CC(C)C", "note": "[Compound 196, Methyl 5-[(2,3,5,6-Tetrafluoro-4-(trifluoromethyl)phenyl)thiomethyl]-2-(difluoromethyl)-4-(2-methylpropyl)-6-(trifluoromethyl)-3-pyridinecarboxylate]", "IC50": 20}
{"smiles": "COC(=O)c1c(C(F)F)nc(C(F)(F)F)c(CSc2nccc(C)n2)c1CC(C)C", "note": "[Compound 197, Methyl 5-[(4-Methylpyrimidin-2-yl)thiomethyl]-2-(difluoromethyl)-4-(2-methylpropyl)-6-(trifluoromethyl)-3-pyridinecarboxylate]", "IC50": 60}
{"smiles": "COC(=O)c1c(C(F)F)nc(C(F)(F)F)c(CSc2ccc(OC)cc2)c1CC(C)C", "note": "[Compound 199, Methyl 5-[(4-Methoxyphenyl)thiomethyl]-2-(difluoromethyl)-4-(2-methylpropyl)-6-(trifluoromethyl)-3-pyridinecarboxylate]", "IC50": 20}
{"smiles": "COC(=O)c1c(C(F)F)nc(C(F)(F)F)c(CSc2ccccc2Cl)c1CC(C)C", "note": "[Compound 200, Methyl 5-[(2-Chlorophenyl)thiomethyl]-2-(difluoromethyl)-4-(2-methylpropyl)-6-(trifluoromethyl)-3-pyridinecarboxylate]", "IC50": 40}
{"smiles": "COC(=O)c1c(C(F)F)nc(C(F)(F)F)c(CSc2c(Cl)cccc2Cl)c1CC(C)C", "note": "[Compound 201, Methyl 5-[(2,6-Dichlorophenyl)thiomethyl]-2-(difluoromethyl)-4-(2-methylpropyl)-6-(trifluoromethyl)-3-pyridinecarboxylate]", "IC50": 30}
{"smiles": "COC(=O)c1c(C(F)F)nc(C(F)(F)F)c(CSc2cccc3cccnc23)c1CC(C)C", "note": "[Compound 202, Methyl 5-[(Quinolin-8-yl)thiomethyl]-2-(difluoromethyl)-4-(2-methylpropyl)-6-(trifluoromethyl)-3-pyridinecarboxylate]", "IC50": 80}
{"smiles": "COC(=O)c1c(C(F)F)nc(C(F)(F)F)c(CSc2ncccn2)c1CC(C)C", "note": "[Compound 203, Methyl 5-[(Pyrimidin-2-yl)thiomethyl]-2-(difluoromethyl)-4-(2-methylpropyl)-6-(trifluoromethyl)-3-pyridinecarboxylate]", "IC50": 70}
{"smiles": "COC(=O)c1c(C(F)F)nc(C(F)(F)F)c(CSc2ccc(NC(C)=O)cc2)c1CC(C)C", "note": "[Compound 204, Methyl 5-[(4-(Acetylamino)phenyl)thiomethyl]-2-(difluoromethyl)-4-(2-methylpropyl)-6-(trifluoromethyl)-3-pyridinecarboxylate]", "IC50": "> 100"}
{"smiles": "COC(=O)c1c(C(F)F)nc(C(F)(F)F)c(CSc2nc3ccccc3o2)c1CC(C)C", "note": "[Compound 205, Methyl 5-[(Benzoxazol-2-yl)thiomethyl]-2-(difluoromethyl)-4-(2-methylpropyl)-6-(trifluoromethyl)-3-pyridinecarboxylate]", "IC50": 20}
